Experimental data reported in BindingDB's records for doi:10.1021/jm980718d (University of Massachusetts Medical Center, 1999).

Legend:
[1] = biological target: Uracil-DNA glycosylase (Human herpesvirus 1) (UniProt P10186); experiment: Inhibitory potency against HSV-1 Uracil-DNA glycosylase
[2] = biological target: Uracil-DNA glycosylase (Human herpesvirus 1) (UniProt P10186); experiment: Inhibitory potency against HSV-1 UDG (Herpes Simplex virus type-I Uracil DNA glycosylase)

Uracil-DNA glycosylase (Human herpesvirus 1), sequence (P10186 whole entry, looked up): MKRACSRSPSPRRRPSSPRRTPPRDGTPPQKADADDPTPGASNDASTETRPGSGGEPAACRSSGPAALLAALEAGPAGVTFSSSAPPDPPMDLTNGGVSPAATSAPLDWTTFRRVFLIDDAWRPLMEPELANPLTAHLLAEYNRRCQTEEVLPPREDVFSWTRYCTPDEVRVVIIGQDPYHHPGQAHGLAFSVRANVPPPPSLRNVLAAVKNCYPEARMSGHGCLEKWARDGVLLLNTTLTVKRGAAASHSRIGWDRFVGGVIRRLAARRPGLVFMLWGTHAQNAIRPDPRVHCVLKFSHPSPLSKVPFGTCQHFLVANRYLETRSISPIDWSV

Structure (SMILES) | IC50 [1] [µM] | IC50 [2] [µM]
CCCCCCCCc1ccc(Nc2cc(=O)[nH]c(=O)n2CCOC)cc1 [1-(2-Methoxy-ethyl)-6-(4-octyl-phenylamino)-1H-pyrimidine-2,4-dione] | 15 | –
CCCCCCCCc1ccc(Nc2cc(=O)[nH]c(=O)n2CCO)cc1 [1-(2-Hydroxy-ethyl)-6-(4-octyl-phenylamino)-1H-pyrimidine-2,4-dione] | 10 | –
CCCCCCCCOc1ccc(Nc2cc(=O)[nH]c(=O)[nH]2)cc1 [6-(4-Octyloxy-phenylamino)-1H-pyrimidine-2,4-dione] | 25 | –
CCCCCCc1ccc(Nc2cc(=O)[nH]c(=O)n2CCO)cc1 [6-(4-Hexyl-phenylamino)-1-(2-hydroxy-ethyl)-1H-pyrimidine-2,4-dione] | – | 20
CCCCCCCCc1ccc(Nc2cc(=O)[nH]c(=O)[nH]2)cc1 [6-(4-Octyl-phenylamino)-1H-pyrimidine-2,4-dione] | 8 | –
CCCCCCc1ccc(Nc2cc(=O)[nH]c(=O)n2CCCOC)cc1 [6-(4-Hexyl-phenylamino)-1-(3-methoxy-propyl)-1H-pyrimidine-2,4-dione] | – | > 100
CCCCCCc1ccc(Nc2cc(=O)[nH]c(=O)[nH]2)cc1 [6-(4-Hexyl-phenylamino)-1H-pyrimidine-2,4-dione] | – | 30
CCc1ccc(Nc2cc(=O)[nH]c(=O)[nH]2)cc1 [6-(4-Ethyl-phenylamino)-1H-pyrimidine-2,4-dione] | – | 500
CCCCCCOc1ccc(Nc2cc(=O)[nH]c(=O)[nH]2)cc1 [6-(4-Hexyloxy-phenylamino)-1H-pyrimidine-2,4-dione] | – | 30
CCCCCCc1ccc(Nc2cc(=O)[nH]c(=O)n2CCOC)cc1 [6-(4-Hexyl-phenylamino)-1-(2-methoxy-ethyl)-1H-pyrimidine-2,4-dione] | – | > 100
CCCCCCCCc1ccc(Oc2cc(=O)[nH]c(=O)[nH]2)cc1 [6-(4-Octyl-phenoxy)-1H-pyrimidine-2,4-dione] | 150 | –
CCCCCCc1ccc(Nc2cc(=O)[nH]c(=O)n2CCCO)cc1 [6-(4-Hexyl-phenylamino)-1-(3-hydroxy-propyl)-1H-pyrimidine-2,4-dione] | – | 90
CCCCCCCCCCc1ccc(Nc2cc(=O)[nH]c(=O)[nH]2)cc1 [6-(4-Decyl-phenylamino)-1H-pyrimidine-2,4-dione] | 35 | –
